Key:
[1] = target: T1, Human glucocorticoid receptor (HGR) (Homo sapiens, UniProt P04150); assay: Relative bond affinity (RBA), recombinant human glucocorticoid receptor, charcoal dextran technique; type: binding; settings: 24 h at 0° C.; Dexamethasone = 100
T1 construct: made in house; host or cells: SF9 insect cells (baculovirus), lysate supernatant
T1 sequence (P04150 1-777): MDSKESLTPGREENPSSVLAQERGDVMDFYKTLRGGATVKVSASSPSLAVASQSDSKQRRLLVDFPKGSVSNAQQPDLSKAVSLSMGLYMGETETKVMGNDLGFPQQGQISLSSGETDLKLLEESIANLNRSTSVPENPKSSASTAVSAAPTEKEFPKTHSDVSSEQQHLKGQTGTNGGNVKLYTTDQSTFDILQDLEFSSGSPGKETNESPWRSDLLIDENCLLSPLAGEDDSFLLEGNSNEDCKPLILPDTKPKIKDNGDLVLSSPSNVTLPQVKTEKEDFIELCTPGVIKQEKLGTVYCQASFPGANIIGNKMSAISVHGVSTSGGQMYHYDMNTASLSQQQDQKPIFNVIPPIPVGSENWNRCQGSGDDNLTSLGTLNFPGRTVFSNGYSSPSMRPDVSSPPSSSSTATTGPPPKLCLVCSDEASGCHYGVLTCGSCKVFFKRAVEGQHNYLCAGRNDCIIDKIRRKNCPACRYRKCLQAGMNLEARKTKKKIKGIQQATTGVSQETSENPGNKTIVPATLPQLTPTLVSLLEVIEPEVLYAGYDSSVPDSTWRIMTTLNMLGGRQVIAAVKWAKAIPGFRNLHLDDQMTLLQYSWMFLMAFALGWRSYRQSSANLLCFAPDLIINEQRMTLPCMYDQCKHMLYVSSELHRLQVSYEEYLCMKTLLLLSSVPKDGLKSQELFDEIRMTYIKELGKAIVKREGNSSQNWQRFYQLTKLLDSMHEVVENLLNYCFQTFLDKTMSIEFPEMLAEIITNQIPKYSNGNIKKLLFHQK
Text: (§1) The human recombinant receptor (HGR, HPR, HAR, HMR, HER) was used.
Human glucocorticoid receptor (HGR):
A supernatant of SF9 cells containing the recombinant human glucocorticoid receptor was obtained by the process described above for the progestogen receptor using the cDNA fragment described by Hollenberg et al (Nature, (1985), Vol. 318 No. 19/26 635) containing the region coding for the human glucocorticoid receptor. The cells obtained were lysed in the lysis buffer (2).
The supernatant was incubated at 0° C. for 24 hours with a constant concentration (T) of tritiated 11β, 17β-dihydroxy-6,21-dimethyl-[…] the presence of increasing concentrations of either unlabelled dexamethasone (0-1000×10^-9 M), or the unlabelled product to be tested (1 to 25000×10^-9 M). The concentration of bound tritiated 11β, 17β-dihydroxy-6,21-dimethyl-Δ^1,4,6 -pregnatriene-20-yn-3-one (B) was then measured in each incubate using the charcoal dextran adsorption technique. […]
(§2) The following two curves were drawn: the percentage of bound tritiated hormone B/BO as a function of the logarithm of the concentration of unlabelled reference hormone or as a function of the logarithm of the concentration of unlabelled test product. The straight line of the following equation was determined: […]
(§3) The relative bond affinity (RBA) of the test product was determined by the equation: […]

[2] = target: T2, Human androgen receptor (HAR) (Homo sapiens, UniProt P10275); assay: Relative bond affinity (RBA), recombinant human androgen receptor, charcoal dextran technique; type: binding; settings: 24 h at 0° C., Testosterone = 100
T2 construct: made in house; host or cells: SF9 insect cells (baculovirus), lysate supernatant
T2 sequence (P10275 1-920): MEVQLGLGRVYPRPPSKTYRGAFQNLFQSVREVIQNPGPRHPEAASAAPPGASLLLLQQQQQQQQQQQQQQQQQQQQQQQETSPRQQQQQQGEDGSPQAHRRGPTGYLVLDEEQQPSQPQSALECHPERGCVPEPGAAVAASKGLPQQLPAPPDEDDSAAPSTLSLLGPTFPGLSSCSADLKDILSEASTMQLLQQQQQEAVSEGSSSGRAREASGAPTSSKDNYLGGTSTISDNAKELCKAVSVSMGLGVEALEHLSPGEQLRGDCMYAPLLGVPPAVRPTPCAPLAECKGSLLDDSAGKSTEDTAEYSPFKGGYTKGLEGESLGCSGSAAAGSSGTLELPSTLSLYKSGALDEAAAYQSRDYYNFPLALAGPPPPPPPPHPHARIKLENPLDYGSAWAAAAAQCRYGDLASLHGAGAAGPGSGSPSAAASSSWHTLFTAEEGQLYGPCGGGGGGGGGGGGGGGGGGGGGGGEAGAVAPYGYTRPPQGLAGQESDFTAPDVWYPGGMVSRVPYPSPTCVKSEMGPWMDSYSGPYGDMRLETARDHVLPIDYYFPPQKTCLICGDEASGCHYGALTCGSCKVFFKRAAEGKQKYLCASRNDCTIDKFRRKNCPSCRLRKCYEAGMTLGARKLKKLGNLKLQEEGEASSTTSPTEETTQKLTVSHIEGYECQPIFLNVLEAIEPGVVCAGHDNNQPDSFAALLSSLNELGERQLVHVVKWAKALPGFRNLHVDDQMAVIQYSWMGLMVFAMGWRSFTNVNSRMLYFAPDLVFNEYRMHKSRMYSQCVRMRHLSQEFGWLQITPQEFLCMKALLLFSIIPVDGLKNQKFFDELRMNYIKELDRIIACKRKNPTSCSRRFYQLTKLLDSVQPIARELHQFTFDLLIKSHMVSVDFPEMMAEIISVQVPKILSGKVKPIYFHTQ
Protocol: as §1
Human androgen receptor (HAR)
A supernatant of SF9 cells containing the recombinant human androgen receptor was obtained by the process described above for the progestogen receptor using the cDNA fragment containing the region coding for the human androgen receptor. The cells obtained were lysed in the lysis buffer (3). The supernatant was incubated at 0° C. for an incubation time of 24 hours with a constant concentration (T) of tritiated testosterone in the presence of increasing concentrations of either unlabelled testosterone (0 to 1000×10^-9 M), or the unlabelled product to be tested (1 to 25000×10^-9 M). The concentration of bound tritiated testosterone (B) was then measured in each incubate using the charcoal dextran adsorption technique.
Calculation of the relative bond affinity (RBA).
as §2, §3

SMILES: C[C@H](O)C(=O)[C@@]1(C)CC[C@H]2[C@@H]3C[C@@H](O)C4=CC(=O)CCC4=C3CC[C@@]21C [Product B, [6β, 17β-(S)]-6-hydroxy-17-(2-hydroxy-1-oxopropyl)-17-methyl-Δ^4,9-estradiene-3-one]
- RBA, Human glucocorticoid receptor [1]: no or negligible RBA's
- RBA, Human androgen receptor [2]: 0
- RBA, Human androgen receptor ([2]; listed as product B): no or negligible RBA's
